{
  "source": "patent US20230270731A1",
  "about": "“THERAPEUTIC COMPOUNDS AND COMPOSITIONS” (eXIthera Pharmaceuticals, Inc., priority 2019, published 2023)",
  "assay_type_in_all_cases": "physicochemical",
  "key": {"[1]": {"assay": "Compatibility with infusion bags", "description": "The compatibility of the reconstituted Compound 1 formulation with two infusion bags (different volumes and material) and two IV lines was tested (Table 13) at c(Compound 1)=0.1 mg/mL. After injection of the reconstituted drug product solution into infusion bags filled with NS, the recovery of Compound 1 was measured i) directly after mixing with the infusion vehicle (to, Table 14) and ii) after Δt=[…] of contact time with the infusion bag (Table 15). Additionally, storage in an infusion bag at ambient temperature and lighting conditions was assessed for Δt=6 h (Table 15). The average values of % recovery are relative to the reconstituted drug product that has not been in contact with the tested materials."}, "[2]": {"assay": "Compatibility with infusion vehicles (NS, D5W)", "description": "The compatibility of the reconstituted Compound 1 formulation with two infusion vehicles, normal saline (NS) and 5% dextrose in water (D5W) was tested after Δt=4 h for two concentration (high/low) at c(Compound 1, target)=0.1 mg/mL and c(Compound 1, target)=1.0 mg/mL and at ambient conditions (Table 10). The average values of % recovery are relative to the dilution of the reconstituted drug product into DI water at to."}, "[3]": {"assay": "Reconstitution and reconstitution stability of the lyophilized Compound 1 drug product", "settings": "reconstituted drug product", "description": "The lyophilized Compound 1 drug product was subjected to testing of reconstitution and to stability testing for 6 h after reconstituted with DI water VDIwater=5 mL.\nThe lyophilization cake readily reconstituted within 10-20 s. The solution during reconstitution appeared quite foamy and contained many bubbles, which cleared within approximately 2 min addition of the reconstitution solution. Residual micro-bubbles on the container wall can be removed by vortexing (2 s) or sonication (2 s). […] The pH of the reconstituted solution was measured with pH=6.81; the osmolality was determined to φ=295 mOsm/kg. The reconstituted solution was practically free of particulates as determined by liquid particle counting (LPC, HIAC: Vsample=5 mL, nruns=4, 1st run discarded, fdilution=10, Vnominal, container=2 mL) with a cumulative count of 3200 particles at a size of 10 μm and 667 particles at a size of 25 μm.\nThe recovery of Compound 1 was monitored for 24 h after reconstitution to test for the in-use stability of the reconstituted solution (Table 9)"}, "[4]": {"assay": "Equilibrium solubility of Compound 1 in common buffers", "settings": "thermodynamic from solid, read-out: Avg. c(Compound 1, FB), equilibrium solubility", "description": "The equilibrium solubility of Compound 1 was tested in common buffers (Table 2) at a buffer strength of c(buffer)=200 mM. For this, samples of Compound 1 with c(Compound 1, target)=16 mg/mL were prepared in the different buffer solutions (Table 3), mixed by vortexing and inspected for solid residues. For the cases for which no solid residues were observed the solutions were arbitrarily supplemented with additional solid Compound 1. This process was repeated (hourly observation) until a solid residue remained readily observable. The samples were rotated at room temperature for 24 h.\nThe equilibrium solubility samples were cleared by centrifugation (table top centrifuge, rcf=16,100×g, 10 min). The supernatant was subjected to HPLC analysis and assayed in triplicates for Compound 1 concentration using the HPLC method described in Example 2. The pH of the supernatant was measured (Table 3)."}, "[5]": {"assay": "Compatibility with sterilization filters", "description": "The feasibility of aseptic processing was evaluated and three different filter materials were tested for compatibility with the reconstituted Compound 1 formulation.\nFilter compatibility of the reconstituted Compound 1 drug product was tested with different filter material (Table 17) composed of polyethersulfone (PES), nylon, and polyvinylidene fluoride (PVDF). For this a volume of Vfilter pass=10 mL was passed through the respective filter and the first as well as the last 10 vol % of the filtered volume were assayed for recovery of Compound 1 (Table 12).\nThe average values of % recovery are relative to the reconstituted drug product that has not been in contact with the tested materials."}},
  "note": "Read-outs that look alike come from different tables or passages of the source.",
  "data": [
    {"smiles": "C[C@@H](NC(=O)N1C(=O)[C@H](Cc2ccnc(N)c2)[C@H]1C(=O)O)C1CCCCC1", "note": "[Compound 1, (2S,3R)-3-[(2-aminopyridin-4-yl)methyl]-1-{[(1R)-1-cyclohexylethyl]carbamoyl}-4-oxoazetidine-2-carboxylic acid]", "values": [
      {"measurement": "Avg. c(Compound 1, FB, Obs.)", "setting": "[1]; Sample soln. (water), no contact with bags", "result": 0.09, "unit": "mg/mL"},
      {"measurement": "Avg. c(Compound 1, FB, Obs.)", "setting": "[1]; infus. bag1 (500 mL Viaflo, NS), t0, vs sample soln.", "result": 0.09, "unit": "mg/mL"},
      {"measurement": "Avg. c(Compound 1, FB, Obs.)", "setting": "[1]; infus. bag1, t = 10 min", "result": 0.09, "unit": "mg/mL"},
      {"measurement": "Avg. c(Compound 1, FB, Obs.)", "setting": "[1]; infus. bag1, t = 6 h, ambient", "result": 0.09, "unit": "mg/mL"},
      {"measurement": "Avg. c(Compound 1, FB, Obs.)", "setting": "[1]; infus. bag2 (50 mL Viaflex, NS), t0, vs sample soln.", "result": 0.08, "unit": "mg/mL"},
      {"measurement": "Avg. c(Compound 1, FB, Obs.)", "setting": "[1]; infus. bag2, t = 10 min", "result": 0.08, "unit": "mg/mL"},
      {"measurement": "Avg. c(Compound 1, FB, Obs.)", "setting": "[1]; infus. bag2, t = 6 h, ambient", "result": 0.08, "unit": "mg/mL"},
      {"measurement": "adsorption of Compound 1 to infusion bag material", "setting": "[1]; infusion bag #1 (Viaflo) compared with infusion bag #2 (Viaflex), immediately after contact", "result": "lesser extent of Compound 1 adsorption"},
      {"measurement": "Avg. c(Compound 1, FB, Obs.)", "setting": "[2]; target 0.1 mg/mL, D5W, t = 4 h, ambient", "result": 0.09, "unit": "mg/mL"},
      {"measurement": "Avg. c(Compound 1, FB, Obs.)", "setting": "[2]; target 0.1 mg/mL, NS, t = 4 h, ambient", "result": 0.09, "unit": "mg/mL"},
      {"measurement": "Avg. c(Compound 1, FB, Obs.)", "setting": "[2]; target 0.1 mg/mL, Water, t0", "result": 0.09, "unit": "mg/mL"},
      {"measurement": "Avg. c(Compound 1, FB, Obs.)", "setting": "[2]; target 0.1 mg/mL, Water, t = 4 h, ambient", "result": 0.09, "unit": "mg/mL"},
      {"measurement": "Avg. c(Compound 1, FB, Obs.)", "setting": "[2]; target 1.0 mg/mL, D5W, t = 4 h, ambient", "result": 0.92, "unit": "mg/mL"},
      {"measurement": "Avg. c(Compound 1, FB, Obs.)", "setting": "[2]; target 1.0 mg/mL, NS, t = 4 h, ambient", "result": 0.92, "unit": "mg/mL"},
      {"measurement": "Avg. c(Compound 1, FB, Obs.)", "setting": "[2]; target 1.0 mg/mL, Water, t0", "result": 0.92, "unit": "mg/mL"},
      {"measurement": "Avg. c(Compound 1, FB, Obs.)", "setting": "[2]; target 1.0 mg/mL, Water, t = 4 h, ambient", "result": 0.92, "unit": "mg/mL"},
      {"measurement": "Avg. c(Compound 1, FB, Obs.)", "setting": "[3]; t0", "result": 9.65, "unit": "mg/mL"},
      {"measurement": "pH (Meas.)", "setting": "[3]; t0", "result": 6.80},
      {"measurement": "Avg. c(Compound 1, FB, Obs.)", "setting": "[3]; t = 1 h", "result": 9.47, "unit": "mg/mL"},
      {"measurement": "pH (Meas.)", "setting": "[3]; t = 1 h", "result": 6.79},
      {"measurement": "Avg. c(Compound 1, FB, Obs.)", "setting": "[3]; t = 2 h", "result": 9.20, "unit": "mg/mL"},
      {"measurement": "pH (Meas.)", "setting": "[3]; t = 2 h", "result": 6.80},
      {"measurement": "Avg. c(Compound 1, FB, Obs.)", "setting": "[3]; t = 4 h", "result": 9.19, "unit": "mg/mL"},
      {"measurement": "pH (Meas.)", "setting": "[3]; t = 4 h", "result": 6.79},
      {"measurement": "Avg. c(Compound 1, FB, Obs.)", "setting": "[3]; t = 6 h", "result": 9.28, "unit": "mg/mL"},
      {"measurement": "pH (Meas.)", "setting": "[3]; t = 6 h", "result": 6.79},
      {"measurement": "Avg. c(Compound 1, FB, Obs.)", "setting": "[3]; t = 24 h", "result": 8.99, "unit": "mg/mL"},
      {"measurement": "pH (Meas.)", "setting": "[3]; t = 24 h", "result": 6.85},
      {"measurement": "solubility thermodynamic at 24 h", "setting": "[4]; citrate buffer, pH 2.72, aqueous buffer, citric acid/sodium 200 mM, pH (Buffer) 3.00, pH (Meas.) 2.72, room temperature 24 h", "result": 5960, "unit": "µg/mL"},
      {"measurement": "solubility thermodynamic at 24 h", "setting": "[4]; citrate buffer, pH 3.74, aqueous buffer, citric acid/sodium 200 mM, pH (Buffer) 4.00, pH (Meas.) 3.74, room temperature 24 h", "result": 6200, "unit": "µg/mL"},
      {"measurement": "solubility thermodynamic at 24 h", "setting": "[4]; pH 1.29, aqueous buffer, phosphoric acid/sodium phosphate 200 mM, pH (Buffer) 2.00, pH (Meas.) 1.29, room temperature 24 h", "result": 159000, "unit": "µg/mL"},
      {"measurement": "solubility thermodynamic at 24 h", "setting": "[4]; pH 4.57, aqueous buffer, acetic acid/sodium acetate 200 mM, pH (Buffer) 5.00, pH (Meas.) 4.57, room temperature 24 h", "result": 7480, "unit": "µg/mL"},
      {"measurement": "solubility thermodynamic at 24 h", "setting": "[4]; pH 6.33, aqueous buffer, sodium phosphate 200 mM, pH (Buffer) 7.00, pH (Meas.) 6.33, room temperature 24 h", "result": 12000, "unit": "µg/mL"},
      {"measurement": "solubility thermodynamic at 24 h", "setting": "[4]; pH 6.67, aqueous buffer, sodium phosphate 200 mM, pH (Buffer) 8.00, pH (Meas.) 6.67, room temperature 24 h", "result": 15300, "unit": "µg/mL"},
      {"measurement": "Avg. c(Compound 1, FB, Obs.)", "setting": "[5]; Nylon filter, first 10% of 10 mL", "result": 0.94, "unit": "mg/mL"},
      {"measurement": "Avg. c(Compound 1, FB, Obs.)", "setting": "[5]; Nylon filter, last 10% of 10 mL", "result": 0.95, "unit": "mg/mL"},
      {"measurement": "Avg. c(Compound 1, FB, Obs.)", "setting": "[5]; PES filter, first 10% of 10 mL", "result": 0.94, "unit": "mg/mL"},
      {"measurement": "Avg. c(Compound 1, FB, Obs.)", "setting": "[5]; PES filter, last 10% of 10 mL", "result": 0.95, "unit": "mg/mL"},
      {"measurement": "Avg. c(Compound 1, FB, Obs.)", "setting": "[5]; PVDF filter, first 10% of 10 mL", "result": 0.95, "unit": "mg/mL"},
      {"measurement": "Avg. c(Compound 1, FB, Obs.)", "setting": "[5]; PVDF filter, last 10% of 10 mL", "result": 0.95, "unit": "mg/mL"},
      {"measurement": "Avg. c(Compound 1, FB, Obs.)", "setting": "[5]; Sample Soln. (pre-filtration)", "result": 0.95, "unit": "mg/mL"},
      {"measurement": "back-pressure during filtration", "setting": "[5]; any of the tested filters", "result": "No increase"}
    ]}
  ]
}
